{"source": "patent US8987212B2", "about": "“Oleanoyl peptide composition and method of treating skin aging” (priority 2007, dated 2015)", "key": {"[1]": {"test_system": "B16F1 mouse melanoma cells", "test": "Melanin inhibition in α-MSH induced melanoma cells", "type": "cell-based", "protocol": "B16F1 mouse melanoma cells were seeded in a 6 well microtiter plate at a seeding density of 5000 cells per well in 2 ml DMEM medium per well. After 24 hours of incubation in a CO2 incubator, melanin production is induced by 0.1 nM ∝-MSH by replacing the medium with medium containing ∝-MSH. The cells were then treated with varying concentrations of sample (composition containing oleanoyl peptide and stilbenes/licorice extract/THC) over a period of 9 days with renewal of ∝-MSH containing medium and sample at regular intervals of 3 days. Control wells were maintained without sample treatment and only with the vehicle used for sample preparation. After the incubation period, the medium was removed and the cells were scraped and washed in PBS. Thereafter, melanin was extracted by 1N NaOH in boiling water bath for 5 minutes. The absorbance of the melanin extract was read at 405 nm in a microplate reader. The inhibitory effect of the sample is calculated based on the decrease of melanin formation.\nT=absorbance due to melanin in the presence of inhibitor"}, "[2]": {"target": "porcine pancreatic elastase (Sus scrofa, UniProt P00772)", "sequence (P00772 27-266)": "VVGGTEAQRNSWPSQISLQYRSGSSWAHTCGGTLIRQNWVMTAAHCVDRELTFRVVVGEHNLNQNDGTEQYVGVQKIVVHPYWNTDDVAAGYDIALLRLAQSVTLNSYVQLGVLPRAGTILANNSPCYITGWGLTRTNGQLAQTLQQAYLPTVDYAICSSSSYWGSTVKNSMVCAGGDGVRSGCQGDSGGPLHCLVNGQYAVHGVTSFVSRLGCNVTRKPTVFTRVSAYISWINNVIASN", "test": "EnzChek Elastase Assay, elastase inhibitory potential", "description": "The EnzChek kit contains DQelastin, fluorescein conjugated soluble bovine neck ligament elastin. This substrate is efficiently digested by elastase to yield highly fluorescent peptides. […] Elastase used for the assay is purified from porcine pancreas.\nT=absorbance due to elastase activity in the presence of inhibitor"}, "[3]": {"test_system": "Interleukin-1beta (IL-1β)", "test": "Extracellular IL-1β from LPS-challenged human neutrophils", "type": "cell-based", "details": "for % activity IL-1β expression against LPS control: ↓ = inhibition", "protocol": "(§1) Experimental observations were made in human neutrophil that were challenged with LPS. […] Rolipram at 100 μg/ml dose level was used as a standard drug to observe the authenticity and reproducibility of the experimental design."}, "Human osteosarcoma cells": {"test_system": "Human osteosarcoma cells", "test": "Collagen enhancement by Sirius Red staining", "type": "cell-based", "details": "at 1.25 ppm, 48 hrs, vs untreated cells", "protocol": "Collagen enhancement was determined by using Sirius Red stain that binds with a greater specificity to Collagen type I and Collagen type III of the extracellular matrix. The stain bound to the collagen is dissolved and the optical density (OD) is measured spectrophotometrically using a Fluostar optima microtiter plate reader at 544 nm. The OD of the stain bound to collagen is directly proportional to the collagen content in the cells.\nHuman osteosarcoma cells from human bone were used for collagen enhancement studies. The cells were seeded with a seeding density of 10000 cells per well of a 24 well plate. Confluent monolayers of cells were initially treated with varying non cytotoxic concentrations of Oleanoyl peptide and vehicle (control) in the culture medium. For each concentration, 4 replicates were maintained and the analysis was performed twice such that the ‘n’ value is 8. After sample treatment, the cells were incubated in a CO2 incubator for 48 hrs. The cells were then developed by Sirius red staining technique to analyze the collagen enhancement. The cells were washed extensively with PBS. The cells were fixed using Bouin's fluid containing 1.3% picric acid, 35% formaldehyde and glacial acetic acid in 15:5:1 ration by incubating with 1 ml of Bouin's fluid per well for 1 hr at RT. The fixative is then removed by suction with micropipette and the cells were washed under running tap water for 15 minutes. After air drying the culture plate, the cells were stained using 0.1% Sirius red stain in 1.3% picric acid. 1 ml per well Sirius red stain was added and the cells were incubated for 1 hr under mild shaking of 70 RPM at RT in Orbitek Shaker. The stain was then removed by suction and the cells were extensively washed with 0.01N HCl to remove unbound dye. The dye bound to collagen was then dissolved in 0.2 ml of 0.1N NaOH per well for 30 minutes under mild shaking of 70 RPM in Orbitek Shaker at RT. The dye was then transferred to 96 well microplate and the OD was read at 544 nm in Fluostar Optima microplate reader.\nThe percentage enhancement in collagen with respect to the untreated cells considering the OD of untreated cells as optimal under normal conditions is calculated as follows, % enhancement in […]=[(100/C)×T]−100 Where C=absorbance due to collagen in untreated cells\nT=absorbance due to collagen in sample treated cells"}, "Prostaglandin E2 (PGE2)": {"test_system": "Prostaglandin E2 (PGE2)", "test": "Extracellular PGE2 from LPS-challenged human neutrophils", "type": "cell-based", "details": "for % activity PGE2 expression against LPS control: ↓ = inhibition", "protocol": "as §1\nThe Oleanoyl peptide was also screened for NO and PGE2 expression."}, "[4]": {"target": "Collagenase Type IV from Clostridium histolyticum", "details": "Collagenase Type IV 0.2 U/ml, DQ gelatin, 30 minutes"}}, "note": "Where a SMILES comes first, the peptide text is derived from it. The star is where a group is joined. X1 = CC1(C)CC[C@]2(C(=O)*)CC[C@]3(C)C(=CCC4[C@@]5(C)CC[C@H](O)C(C)(C)C5CC[C@]43C)C2C1"}
{"molecule": "C[C@@H](O)[C@H](NC(=O)[C@H](CCCCN)NC(=O)[C@]12CCC(C)(C)CC1C1=CCC3[C@@]4(C)CC[C@H](O)C(C)(C)C4CC[C@@]3(C)[C@]1(C)CC2)C(=O)N[C@H](C(=O)N[C@@H](CCCCN)C(=O)N[C@@H](CO)C(=O)O)[C@@H](C)O", "note": "(stereo partly drawn) [Oleanoyl peptide, Oleanoyl-Lys-Thr-Thr-Lys-Ser-OH] (X1-KTTKS-OH)", "values": [{"measurement": "reduction in melanin", "setting": "[1]; result in words, FIG. 15", "value": "no significant reduction in melanin"}, {"measurement": "Melanin inhibition IC50 (μg/ml), Individual active", "setting": "[1]; α-MSH induced, 9 days", "value": "Not significant"}, {"measurement": "IC50", "setting": "[2]", "value": 143, "unit": "µM"}, {"measurement": "Concentration of IL-1β produced (pg/ml) Mean ± S.E.", "setting": "[3]; test sample 0.125 μg/ml", "value": "130.79 ± 3.07", "unit": "pg/mL"}, {"measurement": "Concentration of IL-1β produced (pg/ml) Mean ± S.E.", "setting": "[3]; test sample 0.25 μg/ml", "value": "119.44 ± 2.23", "unit": "pg/mL"}, {"measurement": "Concentration of IL-1β produced (pg/ml) Mean ± S.E.", "setting": "[3]; test sample 0.5 μg/ml", "value": "109.72 ± 3.21", "unit": "pg/mL"}, {"measurement": "Concentration of IL-1β produced (pg/ml) Mean ± S.E.", "setting": "[3]; test sample 1 μg/ml", "value": "96.61 ± 3.63", "unit": "pg/mL"}, {"measurement": "Concentration of IL-1β produced (pg/ml) Mean ± S.E.", "setting": "[3]; test sample 2 μg/ml", "value": "102.08 ± 2.61", "unit": "pg/mL"}, {"measurement": "Concentration of IL-1β produced (pg/ml) Mean ± S.E.", "setting": "[3]; test sample 4 μg/ml", "value": "100.45 ± 3.78", "unit": "pg/mL"}, {"measurement": "% activity IL-1β expression against LPS control", "setting": "[3]; test sample 0.125 μg/ml", "value": "6.29↓ %"}, {"measurement": "% activity IL-1β expression against LPS control", "setting": "[3]; test sample 0.25 μg/ml", "value": "14.42↓ %"}, {"measurement": "% activity IL-1β expression against LPS control", "setting": "[3]; test sample 0.5 μg/ml", "value": "21.39↓ %"}, {"measurement": "% activity IL-1β expression against LPS control", "setting": "[3]; test sample 1 μg/ml", "value": 31.78, "unit": "%"}, {"measurement": "% activity IL-1β expression against LPS control", "setting": "[3]; test sample 1 μg/ml, listed as OP", "value": "30.78↓ %"}, {"measurement": "% activity IL-1β expression against LPS control", "setting": "[3]; test sample 2 μg/ml", "value": "26.86↓ %"}, {"measurement": "% activity IL-1β expression against LPS control", "setting": "[3]; test sample 4 μg/ml", "value": "28.03↓ %"}, {"measurement": "enhancement in collagen", "setting": "Human osteosarcoma cells", "value": 17, "unit": "%"}, {"measurement": "Concentration of PGE2 produced (pg/ml) Mean ± S.E.", "setting": "Prostaglandin E2 (PGE2); test sample 0.125 μg/ml", "value": "573.82 ± 6.08", "unit": "pg/mL"}, {"measurement": "Concentration of PGE2 produced (pg/ml) Mean ± S.E.", "setting": "Prostaglandin E2 (PGE2); test sample 0.25 μg/ml", "value": "501.64 ± 7.56", "unit": "pg/mL"}, {"measurement": "Concentration of PGE2 produced (pg/ml) Mean ± S.E.", "setting": "Prostaglandin E2 (PGE2); test sample 0.5 μg/ml", "value": "468.31 ± 6.41", "unit": "pg/mL"}, {"measurement": "Concentration of PGE2 produced (pg/ml) Mean ± S.E.", "setting": "Prostaglandin E2 (PGE2); test sample 1 μg/ml", "value": "419.53 ± 5.07", "unit": "pg/mL"}, {"measurement": "Concentration of PGE2 produced (pg/ml) Mean ± S.E.", "setting": "Prostaglandin E2 (PGE2); test sample 2 μg/ml", "value": "384.44 ± 8.02", "unit": "pg/mL"}, {"measurement": "Concentration of PGE2 produced (pg/ml) Mean ± S.E.", "setting": "Prostaglandin E2 (PGE2); test sample 4 μg/ml", "value": "395.81 ± 4.68", "unit": "pg/mL"}, {"measurement": "% activity PGE2 expression against LPS control", "setting": "Prostaglandin E2 (PGE2); test sample 0.125 μg/ml", "value": "25.37↓ %"}, {"measurement": "% activity PGE2 expression against LPS control", "setting": "Prostaglandin E2 (PGE2); test sample 0.25 μg/ml", "value": "34.76↓ %"}, {"measurement": "% activity PGE2 expression against LPS control", "setting": "Prostaglandin E2 (PGE2); test sample 0.5 μg/ml", "value": "39.09↓ %"}, {"measurement": "% activity PGE2 expression against LPS control", "setting": "Prostaglandin E2 (PGE2); test sample 1 μg/ml", "value": "45.44↓ %"}, {"measurement": "% activity PGE2 expression against LPS control", "setting": "Prostaglandin E2 (PGE2); test sample 2 μg/ml", "value": 50.00, "unit": "%"}, {"measurement": "% activity PGE2 expression against LPS control", "setting": "Prostaglandin E2 (PGE2); test sample 2 μg/ml, listed as OP", "value": "50.00↓ %"}, {"measurement": "% activity PGE2 expression against LPS control", "setting": "Prostaglandin E2 (PGE2); test sample 4 μg/ml", "value": "48.52↓ %"}, {"measurement": "Collagenase inhibition (IC50 μg/ml)", "setting": "[4]", "value": 119, "unit": "µg/mL"}]}
